The results in this text go back to patent US20040014140A1, “Methods for identifying allosteric sites” (priority 2002, published 2004).

One assay has as its system caspase-9. The assay is described as follows: Tethering experiments with caspase-9. More on the design: species or system human. As to conditions: binding to the small subunit, cysteine corresponding to Ile-265 in caspase-3.
Assay [1] concerns mutant PTP-1B where Asn-193 is mutated to alanine, Phe-196 is mutated to arginine, and Phe-280 is mutated to cysteine. The assay can be described thus: Inhibition of allosterically disabled mutant PTP-1B. It counts as biochemical, human. To be noted: N193A, F196R, F280C mutant; allosteric mechanism disabled. An excerpt:
The importance of allosteric forming residues, Asn-193, Phe-196, and Phe-280 has been confirmed in part using mutagenesis experiments.
PTP-1B[321; N193A; F196R; F280C] was generated by joining an NdeI-PstI fragment from PTP-IB[321; N193A; F196R], corresponding to residues 1-215, with a PstI-EcoRI fragment from PTP-1B[321; F280C], corresponding to residues 216-321.
PTP-1B[298; N193A; F196R; F280C] was generated by PCR using PTP-1B[321; N193A; F196R; F280C] as a template. T7 vector primer was used as forward primer and truncation at residue 298 was generated using the primer 5′-[…] (SEQ ID. NO. 22).

Experimental for caspase-9: This example describes one embodiment of a tethering experiment using caspase-3 or cysteine mutants thereof. […] Reactions were allowed to proceed to equilibrium (≧1 hour) before being analyzed by mass spectrometry. The reaction mixture was loaded onto a Finnegan LCQ2 or LCQ3 LCMS, with each run taking 2-5 minutes, depending upon the separation procedure. After deconvolution, the large and/or small subunits were identified based upon their known molecular weight.

Turning to `O=C(O)c1ccc(Oc2ccccc2)cc1` [compound 8], the “selection in tethering experiments” value in the assay on caspase-9 was “selected”.
With `CCc1oc2cc(S(=O)(=O)Nc3ccc(S(N)(=O)=O)cc3)ccc2c1C(=O)c1cc(Br)c(O)c(Br)c1` [compound 15], the “inhibition of mutant PTP-1B” value in assay [1] was “no longer capable of inhibiting the enzyme”.
